Source: patent publication US20100151053A1, “SYSTEM AND METHOD FOR THE DELIVERY OF A SANITIZING FOAM” (GREEN SOURCE AUTOMATED, LLC, priority 2008, published 2010)

Experiment: volumes of gas dissolved in teat dip solution under pressure
Assay type: physicochemical
Settings: standard room temperature and 100 psi pressure; TeatKote 10/111 dip solution
Excerpt: When a vessel containing the dip solution is pressurized, the gas mixture pressure causes the gasses to dissolve into the dip and an amount of energy caused by the pressurization acts upon the system. The system is allowed to come to equilibrium and the temperature is controlled such that any temperature rise caused by this energy introduction is removed. Henry's law states: “the amount of any given gas that will dissolve in a liquid at a given temperature is a function of the partial pressure of the gas that is in contact with the liquid and the solubility coefficient of the gas in the particular liquid.” In other words, the amount of gas that can be dissolved into a liquid depends on the temperature, the pressure, and how well the particular liquid absorbs gases. With that being said, in order to make a consistent application of the preparation as a foam on the teats of a cow, a consistent pressure and temperature is beneficial. A recirculation loop from the pressurized tank to the nozzle and back to the tank can, for example, be employed to make sure the temperature and dissolved gas content remain consistent with that of the dip mixture in the tank in an embodiment of the invention.
In various embodiments of the invention, a pressure vessel is used to hold the dip solution and expose it to the propellant/diffused gas or gasses. […]

O=C=O [CO2, Carbon dioxide]
volumes dissolved, gas versus dip solution: approximately 4.5 volumes

[N-]=[N+]=O [Example N2O, nitrous oxide]
volumes dissolved, gas versus dip solution: approximately four
